This passage reports IC50 results from patent publication US20250206729A1, “DUAL RAF AND TUBULIN INHIBITORS AND METHODS OF USE THEREOF” (Deciphera Pharmaceuticals, LLC, priority 2023, published 2025).

In assay [1] the target is T1, B-Raf kinase (SEQ ID NO: 1) (Homo sapiens, UniProt P15056).
T1 construct: GST (N); purchased Sigma
Nature of the assay: Biochemical assay for B-Raf (coupled pyruvate kinase/lactate dehydrogenase). Conditions: 1 mM ATP; read-out: BRAF (inhibition of biochemical activity, IC50).

Assay [2] deals with T2, C-Raf kinase (SEQ ID NO: 2) (Homo sapiens, UniProt P04049, Y340D/Y341D).
T2 construct: C-Raf residues 306-end; Y340D, Y341D with N-; GST (N); purchased Sigma
Nature of the assay: Biochemical assay for C-Raf (coupled pyruvate kinase/lactate dehydrogenase). Conditions: 1 mM ATP; read-out: CRAF (inhibition of biochemical activity, IC50).

In the next assay the test system is MiaPaca-2 cells. The experiment in a line: MiaPaca-2 cell proliferation assay. It counts as cell-based. Conditions: Homo sapiens, MIA PaCa-2; 67-72 h incubation, resazurin; read-out: MiaPaca-2 (inhibition of cell proliferation, IC50). The method, then: Miapaca-2 cells (catalog #CRL-1420) are obtained from the American Type Culture Collect (ATTC, Manassas, VA). Briefly, cells were grown in DMEM supplemented with 10% characterized fetal bovine serum (Invitrogen, Carlsbad, CA), 2.5% New Zealand sourced horse serum and 1% Penicillin/Streptomycin/L-Glutamine at 37° C., 5% CO2, and 95% humidity. Cells are expanded until reaching 70-95% confluency at which point they are sub-cultured or harvested for assay use. A serial dilution of test compound is dispensed into a 384-well black clear bottom plate in triplicate. Seven hundred fifty cells are added per well in 50 μL complete growth medium in the 384-well plate. Plates are incubated for 67-72 h at 37° C., 5% CO2, and 95% humidity. At the end of the incubation, 10 μL of a 440 μM solution of resazurin (Sigma, St. Louis, MO) in PBS is added to each well of the plate and plates are incubated for an additional 5-6 h at 37° C., 5% CO2, and 95% humidity. Plates are read on a Synergy2 or equivalent reader (Biotek, Winooski VT) using an excitation of 540 nm and an emission of 600 nm. Data is analyzed using Prism software (GraphPad, San Diego, CA) to calculate IC50 values.

Another assay concerns HCT-116 cells. The experiment in a line: HCT-116 cell proliferation assay. It counts as cell-based. Conditions: Homo sapiens, HCT-116; 67 to 72 h incubation, resazurin; read-out: HCT-116 (inhibition of cell proliferation, IC50). The method, then: HCT-116 cells (catalog #CCL-247) are obtained from the American Type Culture Collect (ATCC, Manassas, VA). Briefly, cells are grown in McCoy's 5A supplemented with 10% characterized fetal bovine serum (Invitrogen, Carlsbad, CA) and 1% Penicillin/Streptomycin/L-Glutamine at 37° C., 5% CO2, and 95% humidity. Cells are expanded until reaching 70-95% confluency at which point they are sub-cultured or harvested for assay use. A serial dilution of test compound is dispensed into a 384-well black clear bottom plate in triplicate. 375 cells are added per well in 50 μL complete growth medium in the 384-well plate. Plates are incubated for 67 to 72 h at 37° C., 5% CO2, and 95% humidity. At the end of the incubation, 40 μL of a […] solution of resazurin (Sigma, St. Louis, MO) in PBS is added to each well of the plate and plates are incubated for an additional 4 to 5 h at 37° C., 5% CO2, and 95% humidity. Plates are read on a Synergy2 or equivalent reader (Biotek, Winooski, VT) using an excitation of 540 nm and an emission of 600 nm. Data is analyzed using Prism software (Graphpad, San Diego, CA) to calculate IC50 values.

Another assay deals with HPAF-II cells. The experiment in a line: HPAF-II cell proliferation assay. In kind it is cell-based. Conditions: Homo sapiens, HPAF-II; 115 to 120 h incubation, resazurin; read-out: HPAF-II (inhibition of cell proliferation, IC50). The procedure: (§1) HPAF-II cells (catalog #CRL-1997) are obtained from the American Type Culture Collect (ATCC, Manassas, VA). Briefly, cells are grown in Minimum Essential Media supplemented with 10% characterized fetal bovine serum (Invitrogen, Carlsbad, CA) and 1% Penicillin/Streptomycin/L-Glutamine at 37° C., 5% CO2, and 95% humidity. Cells are expanded until reaching 70-95% confluency at which point they are sub-cultured or harvested for assay use. A serial dilution of test compound is dispensed into a 384-well black clear bottom plate in triplicate. 750 cells are added per well in 50 μL complete growth medium in the 384-well plate. Plates are incubated for 115 to 120 h at 37° C., 5% CO2, and 95% humidity. At the end of the incubation, 40 μL of a […] solution of resazurin (Sigma, St. Louis, MO) in PBS is added to each well of the plate and plates are incubated for an additional 18 to 24 h at 37° C., 5% CO2, and 95% humidity. Plates are read on a Synergy2 or equivalent reader (Biotek, Winooski, VT) using an excitation of 540 nm and an emission of 600 nm. Data is analyzed using Prism software (Graphpad, San Diego, CA) to calculate IC50 values.

A further assay concerns Pa16c cells. The experiment in a line: Pa16c cell proliferation assay. In kind it is cell-based. Conditions: 67 to 72 h incubation, resazurin; read-out: Pa16c (inhibition of cell proliferation, IC50). The procedure:
as §1, with “Pa16c” for “HPAF-II”, “cells” for “cells (catalog #CRL-1997)”, “Dr. Channing Der, University of North Carolina at Chapel Hill.” for “the American Type Culture Collect (ATCC, Manassas, VA).”, “Dulbecco's Modified Eagle Medium” for “Minimum Essential Media”, “67” for “115”, “72” for “120”

T2 sequence (P04049 307-648 Y340D/Y341D): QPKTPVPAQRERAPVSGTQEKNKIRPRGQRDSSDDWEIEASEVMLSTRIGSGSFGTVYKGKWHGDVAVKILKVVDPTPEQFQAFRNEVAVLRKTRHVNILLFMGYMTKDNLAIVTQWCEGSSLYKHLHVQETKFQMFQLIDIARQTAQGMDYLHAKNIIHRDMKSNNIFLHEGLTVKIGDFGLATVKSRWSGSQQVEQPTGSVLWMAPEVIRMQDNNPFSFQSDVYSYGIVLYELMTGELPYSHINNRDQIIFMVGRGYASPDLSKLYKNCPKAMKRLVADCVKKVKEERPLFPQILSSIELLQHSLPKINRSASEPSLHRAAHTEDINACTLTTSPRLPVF
T1 sequence (P15056 416-766): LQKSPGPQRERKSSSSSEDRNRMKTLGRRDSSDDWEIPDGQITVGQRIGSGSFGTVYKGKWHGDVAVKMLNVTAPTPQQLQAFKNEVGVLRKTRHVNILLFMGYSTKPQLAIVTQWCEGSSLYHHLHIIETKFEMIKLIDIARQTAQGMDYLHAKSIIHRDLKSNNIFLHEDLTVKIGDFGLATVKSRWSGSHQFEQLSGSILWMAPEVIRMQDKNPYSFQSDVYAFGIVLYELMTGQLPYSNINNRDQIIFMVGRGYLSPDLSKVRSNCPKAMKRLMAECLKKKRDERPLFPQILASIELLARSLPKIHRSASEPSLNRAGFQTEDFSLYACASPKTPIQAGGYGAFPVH

For `Cc1ccc(NC(=O)c2cnc(Cl)nc2)cc1-c1cc(N[C@H](C)CO)nc(N2CCOCC2)c1` [Example 38], the IC50 in assay [1] fell in the range of 1000 to 10000 nM; in assay [2], 500 to 1000 nM; with MiaPaca-2 cells, 1000 to 10000 nM; in the assay with HCT-116 cells, 1000 to 10000 nM; with HPAF-II cells it was 1000 to 10000 nM; in the assay on Pa16c cells, 1000 to 10000 nM.
For `Cc1ccc(NC(=O)c2cc(C(C)C)cnn2)cc1-c1cc(OCCO)nc(N2CCOCC2)c1` [Example 39], the IC50 in assay [1] is < 100 nM; in assay [2], < 100 nM; in the assay with MiaPaca-2 cells it was 100 to 500 nM; in the assay with HCT-116 cells it was < 100 nM; in the assay on HPAF-II cells it was 100 to 500 nM; in the assay on Pa16c cells, 100 to 500 nM.
Turning to `Cc1ccc(NC(=O)c2cc(C3CC3)cnn2)cc1-c1cc(N2CCOCC2)ncn1` [Example 40], the IC50 in assay [1] was in the range of 100 to 500 nM; in assay [2], 500 to 1000 nM; with MiaPaca-2 cells, 1000 to 10000 nM; with HCT-116 cells, 500 to 1000 nM; with HPAF-II cells, 500 to 1000 nM; in the assay with Pa16c cells, 1000 to 10000 nM.
In the case of `Cc1ccc(NC(=O)c2cc(C(F)(F)F)cnn2)cc1-c1cccc(N2CCOCC2)c1` [Example 41], the IC50 in assay [1] is 100 to 500 nM; in assay [2] it was < 100 nM; in the assay on MiaPaca-2 cells, 100 to 500 nM; in the assay with HCT-116 cells it was 100 to 500 nM; in the assay on HPAF-II cells it was < 100 nM; with Pa16c cells it was 100 to 500 nM.
For the molecule `Cc1cc(-c2cc(NC(=O)c3cc(C4CCC4)cnn3)ccc2C)cc(N2CCOCC2)n1` [Example 42], the IC50 in assay [1] is < 100 nM; in assay [2], < 100 nM; in the assay with MiaPaca-2 cells, 100 to 500 nM; in the assay with HCT-116 cells it was 100 to 500 nM; in the assay on HPAF-II cells, 100 to 500 nM; in the assay on Pa16c cells it was 100 to 500 nM.
For `Cc1ccc(NC(=O)c2cc(C(F)(F)F)cnn2)cc1-c1nc(OCCO)cc(N2CCOCC2)n1` [Example 43], the IC50 in assay [1] was 1000 to 10000 nM; in assay [2], 1000 to 10000 nM; in the assay with MiaPaca-2 cells it was < 100 nM; in the assay with HCT-116 cells, 100 to 500 nM; with HPAF-II cells, < 100 nM; in the assay with Pa16c cells, 100 to 500 nM.
Take `Cc1ccc(NC(=O)c2cc(C3CC3)cnn2)cc1-c1nc(N[C@H](C)CO)cc(N2CCOCC2)n1` [Example 45]: the IC50 is 1000 to 10000 nM in assay [1]; 500 to 1000 nM in assay [2]; 500 to 1000 nM with MiaPaca-2 cells; 500 to 1000 nM in the assay on HCT-116 cells; 500 to 1000 nM with HPAF-II cells; 1000 to 10000 nM in the assay with Pa16c cells.
As for `Cc1ccc(NC(=O)c2cc(C3CC3)cnn2)cc1-c1cccc(N2CCOCC2)c1` [Example 46], the IC50 in assay [1] was 100 to 500 nM; in assay [2], < 100 nM; in the assay with MiaPaca-2 cells it was 500 to 1000 nM; in the assay with HCT-116 cells, 100 to 500 nM; in the assay with HPAF-II cells, 100 to 500 nM; in the assay on Pa16c cells, 100 to 500 nM.
On to `Cc1ccc(NC(=O)c2cncc(C(F)(F)F)c2)cc1-c1cc(OCCO)nc(N2CCOCC2)c1` [Example 47], for which the IC50 in assay [1] is < 100 nM; in assay [2] it was < 100 nM; with MiaPaca-2 cells, 500 to 1000 nM; in the assay on HCT-116 cells it was 100 to 500 nM; with HPAF-II cells, 500 to 1000 nM; in the assay with Pa16c cells it was 1000 to 10000 nM.
With `Cc1ccc(NC(=O)c2cc(C3CCC3)cnn2)cc1-c1cc(OCCO)nc(N2CCOCC2)c1` [Example 50], the IC50 (in assay [1]; in assay [2]; in the assay on MiaPaca-2 cells; with HCT-116 cells; in the assay with HPAF-II cells; in the assay with Pa16c cells) was < 100 nM in each case.
For `Cc1ccc(NC(=O)c2cc(Cl)cnn2)cc1-c1ccnc(N2CCOCC2)c1` [Example 51], the IC50 in assay [1] lay in the range of 1000 to 10000 nM; in assay [2] it was 500 to 1000 nM; in the assay on MiaPaca-2 cells it was 1000 to 10000 nM; with HCT-116 cells, 500 to 1000 nM; in the assay on HPAF-II cells it was 500 to 1000 nM; with Pa16c cells, 1000 to 10000 nM.
On to `Cc1ccc(NC(=O)c2cc(C3CC3)cnn2)cc1-c1nccc(N2CCOCC2)n1` [Example 52], for which the IC50 (in assay [1]; in assay [2]; in the assay with MiaPaca-2 cells; in the assay with HCT-116 cells; with HPAF-II cells; with Pa16c cells) was 1000 to 10000 nM throughout.
